Experimental data as given in patent publication US12629415B2, “Vaccine adjuvants” (THE PROVOST, FELLOWS, FOUNDATION SCHOLARS, AND THE OTHER …, priority 2018, dated 2026).
Entries after “also recorded” stand apart in the source; their conditions may differ.

Columns and labels:
[1] = test system: mononuclear cells from cord blood, children's blood or adult blood; test: HEK-Blue IFNα/β and TNFα assays on mononuclear cells of cord blood, children and adults; format: cell-based, human; conditions: transfection 24 h, 4-24 months, 2-5 years, 6-11 years
Description: Umbilical cord blood samples were obtained from term births following normal pregnancy, labour and delivery at National Maternity Hospital (NMH), Holles St, Dublin 2. […] Venous blood from infants, children and adolescents of various ages was collected during elective surgical procedures where no indication of infection was present (such as hydrocele repair, umbilical hernia repair, onychocryptosis, orchipexy repair) in Our Lady's Children's Hospital Crumlin (OLCHC), Dublin 12. […] Volumes drawn were age and weight dependent, according to standard, approved guidelines. Ethics approval was obtained from the Ethics Committees of NMH and OLCHC and informed consent was obtained from each subject or their parent/guardian. Adult blood samples were from healthy adults, supplied by the Irish Blood Transfusion Service. • Poly(I:C), Poly(dA:dT) and cGAMP were obtained from Invivogen • Poly (dA:dT) is a repetitive synthetic double-stranded DNA sequence of poly(dA-dT)-poly(dT-dA) http://www.invivopen.com/poly-dadt-naked • Poly (I:C) comprises long strands of inosine poly(I) homopolymer annealed to strands of cytidine poly(C) homopolymer http://www.invivogen.com/polyic-hmw. • cGAMP is cyclic [G(2′,5′)pA(3′,5′)p]; Formula: […], 2Na Methodology
Isolation of mononuclear cells and monocytes—Primary PBMCs or CBMCs were isolated from healthy human blood or cord blood. Monocytes were isolated by negative selection using Monocyte Isolation Kit II (Miltenyi). Monocyte purity was assessed using CD14 staining and was routinely 85-95%. Cells were cultured at 37° C., 5% CO2, 95% air in RPMI-1640, with stable 2.5 mM L-glutamine and 0.5 mM sodium pyruvate with 10% FBS (all from Sigma-Aldrich).
Poly(I:C) (5 μg/ml) (Invivogen), Poly(dA:dT) (5 μg/ml) (Sigma-Aldrich), 2′3′ cGAMP (10 μg/ml), 5′ triphosphate double stranded RNA (5′ ppp dsRNA) (2.5 μg/ml) and HSV-60 (2 μg/ml) (all from Invivogen) were transfected into PBMCs or CBMCs using TransIT-X2 (Mirus).
Measurement of cytokines—HEK Blue TNFα/IFNα/β Assays were performed as per the manufacturer's (Invivogen) instructions using Quanti-Blue Detection Reagent. SEAP levels were determined using a spectrophotometer plate reader at 630 nm. IFNα (3425-1H-6, Mabtech) and IP-10 (DY266, R&D Systems) were detected by sandwich ELISA. IFNα ELISA used pan specific IFNα antibodies, which allows detection of IFNα subtypes 1/13, 2, 4, 5, 6, 7, 8, 10, 14, 16 and 17. BioLegend LEGENDplex™ Human Inflammation Panel (13-plex) was carried out as per manufacturer's (Biolegend) instructions to determine levels of IFNγ, IL-10, IL-12p70 and IL-23. A BD LSR Fortessa cell analyser was used to acquire samples and BioLegend LEGENDplex™ software was used for analysis.

bovine PBMCs = test: Real-time PCR of gene expression in bovine PBMCs; format: cell-based, cattle; conditions: for IFN-α gene expression / IFN-β gene expression: vs unstimulated cells; for ISG-15 expression: after 12 hours (text), 6 hours (FIG. 23 legend)
Method: RNA extraction was conducted using Trizol and an RNeasy Plus Mini Kit (Qiagen Ltd). Tissue culture plates of stimulated cells were spun and supernatants were extracted while the remaining adherent cells were lysed using Trizol. Chloroform (200 μl per 1 ml of Trizol) was then added to the cell lysates and mixed vigorously before being centrifuged at 12000 g for 15 minutes at 4° C. The resulting aqueous layer of RNA was transferred to another tube containing 1 volume of ethanol. The mixture was then added to an RNeasy column and processed according to the manufacturer's instructions (Qiagen Ltd). After rigorous purification, the RNA was isolated and quantified using NanoDrop ND-1000 UV-Vis Spectrophotometer (NanoDrop Technologies Inc.). Finally the samples were stored at −80° C.
RNA was converted to cDNA using a High-Capacity cDNA Reverse transcription Kit (Applied Biosystems). Components needed for reverse transcriptase included RNA, RT 5× buffer, RNase Out, random hexamers, dNTP's and reverse transcriptase. The process was conducted under the following conditions: 25° C. for 10 minutes, 42° C. for 60 minutes, 95° C. for 3 minutes and hold at 4° C. The resulting cDNA was stored at −20° C.
Using, SYBR Green intercalating dye (Applied Biosystems Ltd), qRT-PCR was performed using Applied Biosystems 7500 Fast Real-Time PCR System. Each well on the qRT-PCR plate was comprised of SYBR Green dye, nuclease free H2O, cDNA, forward and reverse primers. Two negative controls were included to ensure no contamination was present. The cycle parameters of the process were: 95° C. for 20 seconds, 40 cycles at 95° C. for 3 seconds, 60° C. for 30 seconds followed by the dissociation steps which were: 95° C. for 15 seconds, 60° C. for 60 seconds, 95° C. for 15 seconds and 60° C. for 15 seconds. The Ct (threshold cycle) values from both the target and reference gene were used to measure the concentration of the target gene in the PCR reaction.

[2] = polydA:dT 1 μg/ml, 6 hours, listed as PolydA:dT
[3] = polydA:dT 1 μg/ml, 6 hours, listed as poly(dA:dT)
[4] = polydA:dT 1 μg/ml, 6 hours, listed as polydA:dT

poly(deoxyadenylic-thymidylic) acid [Poly(dA:dT)]
TNFα production across age groups [1]: maintenance of cord blood responsiveness to CNA was also observed for both Poly(I:C) and Poly(dA:dT)-induced TNFα production to the age of 24 months
production of type I IFN across age groups [1]: maintained throughout childhood; also recorded: maintained across all age groups
IFI-16 expression (bovine PBMCs; polydA:dT 1 μg/ml transfected, 12 hours): enhanced in response to polydA:dT; also recorded: regulates IFI-16 expression; also recorded: IFI-16 expression is enhanced by polydA:dT
IL-18 expression (bovine PBMCs; polydA:dT 1 μg/ml, 6 hours): enhanced by polydA:dT; also recorded: increased in response to polydA:dT after 6 hours; also recorded: can drive enhanced IL-18 expression; also recorded: increased the expression of IL-18; also recorded: robust driver of IL-1β secretion and IL-18 expression in cattle
IFN-α gene expression (bovine PBMCs; [2]): increases type I IFN expression by bovine PBMCs; also recorded: enhanced IFN-α, IFN-β and ISG-15 expression by bovine PBMCs
IFN-β gene expression (bovine PBMCs; [2]): increases type I IFN expression by bovine PBMCs; also recorded: enhanced IFN-α, IFN-β and ISG-15 expression by bovine PBMCs
IFN-α gene expression (bovine PBMCs; [3]): enhanced type 1 interferon secretion
IFN-β gene expression (bovine PBMCs; [3]): enhanced type 1 interferon secretion
IFN-α gene expression (bovine PBMCs; [4]): enhanced after 6 hours in comparison to unstimulated cells; also recorded: increases IFN-α and IFN-β expression in bovine PBMCs
IFN-β gene expression (bovine PBMCs; [4]): enhanced after 6 hours in comparison to unstimulated cells; also recorded: increases IFN-α and IFN-β expression in bovine PBMCs
ISG-15 expression (bovine PBMCs; polydA:dT 1 μg/ml, listed as PolydA:dT): enhanced IFN-α, IFN-β and ISG-15 expression by bovine PBMCs
ISG-15 expression (bovine PBMCs; polydA:dT 1 μg/ml, listed as polydA:dT): increased in response polydA:dT after 12 hours; also recorded: ISG-15 expression is increased in bovine PBMCs
